ChEMBL document CHEMBL1909046, “DrugMatrix in vitro pharmacology data”

Key:
[1] = target: Matrix metalloproteinase-9 (Homo sapiens, UniProt P14780); assay: biochemical; format: cell-based;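 further: inhibition of isolated MMP-9 enzyme activity toward a synthetic peptide substrate, from the DrugMatrix protease screening panel; in other assays of this panel Not Active means under 50% inhibition at 10 µM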
[2] = DRUGMATRIX: Glutamate, AMPA radioligand binding (ligand: [3H] AMPA); format: cell membranes, Rattus norvegicus, Wistar, Cerebral cortex, Membrane; details: Not Active = under 50% inhibition at 10 µM
[3] = DRUGMATRIX: Potassium Channel [KATP] radioligand binding (ligand: [3H] Glyburide); format: cell membranes, Membrane; details: hit-t15; Not Active = under 50% inhibition at 10 µM
[4] = target: T1, Alpha-1A adrenergic receptor (Rattus norvegicus, UniProt P43140); assay: DRUGMATRIX: Alpha-1A adrenergic receptor radioligand binding (ligand: prazosin); format: cell membranes, Wistar, Submaxillary gland, Membrane; details: Not Active = under 50% inhibition at 10 µM
T1 sequence (P43140 whole entry): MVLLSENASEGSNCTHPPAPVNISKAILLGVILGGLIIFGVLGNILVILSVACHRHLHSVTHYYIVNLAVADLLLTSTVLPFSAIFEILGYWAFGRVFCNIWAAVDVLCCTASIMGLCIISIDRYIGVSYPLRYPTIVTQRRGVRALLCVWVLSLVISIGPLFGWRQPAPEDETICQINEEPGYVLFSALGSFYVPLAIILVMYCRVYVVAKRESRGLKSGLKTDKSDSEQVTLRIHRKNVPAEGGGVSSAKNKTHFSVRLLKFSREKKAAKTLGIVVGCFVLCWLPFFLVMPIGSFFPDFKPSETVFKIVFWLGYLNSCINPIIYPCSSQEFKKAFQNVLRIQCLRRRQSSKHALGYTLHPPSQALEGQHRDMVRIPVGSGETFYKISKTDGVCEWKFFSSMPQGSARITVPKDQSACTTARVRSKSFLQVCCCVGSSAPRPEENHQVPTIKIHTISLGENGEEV

[5] = target: T2, Adenosine receptor A1 (Homo sapiens, UniProt P30542); format: cell membranes, Membrane; details: cho;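 further: radioligand binding assay at the adenosine A1 receptor, with DPCPX serving as the labelled ligand; in other assays of this panel Not Active means under 50% inhibition at 10 µM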
T2 sequence (P30542 whole entry): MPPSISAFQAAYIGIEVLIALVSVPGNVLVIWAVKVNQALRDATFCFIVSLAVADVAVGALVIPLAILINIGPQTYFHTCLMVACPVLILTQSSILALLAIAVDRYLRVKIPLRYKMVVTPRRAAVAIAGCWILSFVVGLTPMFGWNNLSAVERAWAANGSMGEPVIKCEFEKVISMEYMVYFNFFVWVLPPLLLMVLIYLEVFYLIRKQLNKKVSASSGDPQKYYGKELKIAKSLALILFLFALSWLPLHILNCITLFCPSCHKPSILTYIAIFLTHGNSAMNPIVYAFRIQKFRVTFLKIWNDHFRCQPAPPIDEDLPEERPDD

[6] = DRUGMATRIX: Calcium Channel Type L, Benzothiazepine radioligand binding (ligand: [3H] Diltiazem); format: cell membranes, Rattus norvegicus, Wistar, Brain, Membrane; details: Not Active = under 50% inhibition at 10 µM
[7] = target: T3, Amine oxidase [flavin-containing] A (Homo sapiens, UniProt P21397); assay: DRUGMATRIX: Monoamine Oxidase MAO-A enzyme inhibition (substrate: Kynuramine); design: species or system BTI-TN-5B1-4; details: bti-tn-5b1-4; Not Active = under 50% inhibition at 10 µM
T3 sequence (P21397 whole entry): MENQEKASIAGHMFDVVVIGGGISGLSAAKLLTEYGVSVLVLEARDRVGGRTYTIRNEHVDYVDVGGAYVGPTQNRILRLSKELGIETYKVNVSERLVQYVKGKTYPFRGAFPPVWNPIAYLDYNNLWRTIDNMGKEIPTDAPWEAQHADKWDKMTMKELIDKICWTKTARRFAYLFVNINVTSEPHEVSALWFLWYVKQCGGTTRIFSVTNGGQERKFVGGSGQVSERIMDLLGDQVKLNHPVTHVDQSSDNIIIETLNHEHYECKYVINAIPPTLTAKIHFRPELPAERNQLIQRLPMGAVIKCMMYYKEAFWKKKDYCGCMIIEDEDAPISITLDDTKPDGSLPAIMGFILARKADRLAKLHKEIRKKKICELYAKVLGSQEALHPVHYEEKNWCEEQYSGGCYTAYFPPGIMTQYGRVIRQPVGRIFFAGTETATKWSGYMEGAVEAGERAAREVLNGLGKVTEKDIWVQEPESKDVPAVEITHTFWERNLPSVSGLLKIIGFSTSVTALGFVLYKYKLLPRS

Matrix metalloproteinase-9, sequence (P14780 whole entry): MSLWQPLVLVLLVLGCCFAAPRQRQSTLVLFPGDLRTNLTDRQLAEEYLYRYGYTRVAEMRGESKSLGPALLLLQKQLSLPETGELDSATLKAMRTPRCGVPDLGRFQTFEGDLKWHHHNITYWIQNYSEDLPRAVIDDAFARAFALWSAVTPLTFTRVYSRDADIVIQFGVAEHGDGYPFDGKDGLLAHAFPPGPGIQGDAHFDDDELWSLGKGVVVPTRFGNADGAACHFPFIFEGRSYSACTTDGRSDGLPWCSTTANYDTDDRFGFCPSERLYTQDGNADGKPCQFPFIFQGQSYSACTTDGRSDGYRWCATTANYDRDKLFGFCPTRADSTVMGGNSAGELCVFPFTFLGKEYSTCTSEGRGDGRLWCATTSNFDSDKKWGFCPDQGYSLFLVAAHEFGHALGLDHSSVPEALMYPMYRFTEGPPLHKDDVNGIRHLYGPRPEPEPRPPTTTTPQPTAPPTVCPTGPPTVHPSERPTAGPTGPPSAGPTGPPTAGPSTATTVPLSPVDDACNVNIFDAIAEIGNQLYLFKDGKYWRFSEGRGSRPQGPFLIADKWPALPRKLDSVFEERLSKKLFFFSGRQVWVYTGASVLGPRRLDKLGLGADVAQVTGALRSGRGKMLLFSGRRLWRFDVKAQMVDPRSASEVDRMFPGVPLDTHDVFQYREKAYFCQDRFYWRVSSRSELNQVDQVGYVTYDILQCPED

CCOC(=O)[C@H](CCc1ccccc1)N[C@H]1CCc2ccccc2N(CC(=O)O)C1=O [BENAZEPRIL]
Not Active: IC50 [1] | IC50 [2] | Ki [2] | IC50 [3] | Ki [3] | IC50 [4] | IC50 [5] | IC50 [6] | Ki [6] | IC50 [7]

Nc1c(CC(=O)O)cccc1C(=O)c1ccc(Br)cc1 [BROMFENAC]
Not Active: IC50 [1] | IC50 [2] | Ki [2] | IC50 [3] | Ki [3] | IC50 [4] | IC50 [5] | IC50 [6] | Ki [6] | IC50 [7]

CCCCN1CCCCC1C(=O)Nc1c(C)cccc1C.Cl (stereo not given) [BUPIVACAINE HYDROCHLORIDE]
Not Active: IC50 [1] | IC50 [2] | Ki [2] | IC50 [3] | Ki [3] | IC50 [4] | IC50 [5] | IC50 [6] | Ki [6] | IC50 [7]

C[C@@]12C(=O)OC(=O)[C@]1(C)[C@H]1CC[C@@H]2O1 [CANTHARIDIN]
Not Active: IC50 [1] | IC50 [2] | Ki [2] | IC50 [3] | Ki [3] | IC50 [4] | IC50 [5] | IC50 [6] | Ki [6] | IC50 [7]

O=NN(CCCl)C(=O)NCCCl [CARMUSTINE]
Not Active: IC50 [1] | IC50 [2] | Ki [2] | IC50 [3] | Ki [3] | IC50 [4] | IC50 [5] | IC50 [6] | Ki [6] | IC50 [7]

CC1=C(C(=O)O)N2C(=O)[C@@H](NC(=O)[C@H](N)c3ccccc3)[C@H]2SC1 [CEPHALEXIN ANHYDROUS]
Not Active: IC50 [1] | IC50 [2] | Ki [2] | IC50 [3] | Ki [3] | IC50 [4] | IC50 [5] | IC50 [6] | Ki [6] | IC50 [7]

O=C(N[C@H](CO)[C@H](O)c1ccc([N+](=O)[O-])cc1)C(Cl)Cl [CHLORAMPHENICOL]
Not Active: IC50 [1] | IC50 [2] | Ki [2] | IC50 [3] | Ki [3] | IC50 [4] | IC50 [5] | IC50 [6] | Ki [6] | IC50 [7]

ClC(Cl)Cl [CHLOROFORM]
Not Active: IC50 [1] | IC50 [2] | Ki [2] | IC50 [3] | Ki [3] | IC50 [4] | IC50 [5] | IC50 [6] | Ki [6] | IC50 [7]

C=C1CC[C@H](O)C/C1=C/C=C1\CCC[C@]2(C)[C@@H]([C@H](C)CCCC(C)C)CC[C@@H]12 [CHOLECALCIFEROL]
Not Active: IC50 [1] | IC50 [2] | Ki [2] | IC50 [3] | Ki [3] | IC50 [4] | IC50 [5] | IC50 [6] | Ki [6] | IC50 [7]

C[N+](C)(C)CCO.[Cl-] [CHOLINE CHLORIDE]
Not Active: IC50 [1] | IC50 [2] | Ki [2] | IC50 [3] | Ki [3] | IC50 [4] | IC50 [5] | IC50 [6] | Ki [6] | IC50 [7]

CCOC(=O)C(C)(C)Oc1ccc(Cl)cc1 [CLOFIBRATE]
Not Active: IC50 [1] | IC50 [2] | Ki [2] | IC50 [3] | Ki [3] | IC50 [4] | IC50 [5] | IC50 [6] | Ki [6] | IC50 [7]

CC(=O)OCC(=O)[C@@]1(O)CC[C@H]2[C@@H]3CCC4=CC(=O)CC[C@]4(C)[C@H]3C(=O)C[C@@]21C [CORTISONE ACETATE]
Not Active: IC50 [1] | IC50 [2] | Ki [2] | IC50 [3] | Ki [3] | IC50 [4] | IC50 [5] | IC50 [6] | Ki [6] | IC50 [7]

O=c1ccc2ccccc2o1 [COUMARIN]
Not Active: IC50 [1] | IC50 [2] | Ki [2] | IC50 [3] | Ki [3] | IC50 [4] | IC50 [5] | IC50 [6] | Ki [6] | IC50 [7]

C[C@@H]1C[C@@H]([C@H](O)CC2CC(=O)NC(=O)C2)C(=O)[C@@H](C)C1 [CYCLOHEXIMIDE]
Not Active: IC50 [1] | IC50 [2] | Ki [2] | IC50 [3] | Ki [3] | IC50 [4] | IC50 [5] | IC50 [6] | Ki [6] | IC50 [7]

C/C=C/C[C@@H](C)[C@@H](O)[C@H]1C(=O)N[C@@H](CC)C(=O)N(C)CC(=O)N(C)[C@@H](CC(C)C)C(=O)N[C@@H](C(C)C)C(=O)N(C)[C@@H](CC(C)C)C(=O)N[C@@H](C)C(=O)N[C@H](C)C(=O)N(C)[C@@H](CC(C)C)C(=O)N(C)[C@@H](CC(C)C)C(=O)N(C)[C@@H](C(C)C)C(=O)N1C [CYCLOSPORINE]
Not Active: IC50 [1] | IC50 [2] | Ki [2] | IC50 [3] | Ki [3] | IC50 [4] | IC50 [5] | IC50 [6] | Ki [6] | IC50 [7]
